Reference: patent US11970463B2, “Compounds and their use” (ASTRAZENECA AB, priority 2021, dated 2024)
≈ marks a conversion by molar mass, not a printed value. Where two headings read alike, the source gives them in different places.

Key:
Human NLRP3 [1] = target: T1, Human NLRP3 (Homo sapiens (Human), UniProt Q96P20); assay: Human NLRP3 speck formation assay (Test A), nigericin triggered ASC-speck formation in ASC-GFP reporter monocytes
hERG = hERG (Homo sapiens (Human), UniProt Q12809); assay: hERG assay (Test D), SyncroPatch 384PE patch clamp, hERG-expressing CHO cells; type: cell-based; conditions: rt
[2] = Solubility (Test F), McIlvaine buffer pH 6.5; type: physicochemical; conditions: McIlvaine buffer pH 6.5, 25° C., 24 to 72 h, theoretical maximum 200 μM; for solubility: disodium hydrogenphosphate-citric acid (McIlvaine) buffer, 25 °C, pH 6.5, aqueous buffer, thermodynamic from solid
Human NLRP3 [3] = target: T1, Human NLRP3
Human NLRP3 [4] = target: T1, Human NLRP3; remark: listed apart in the source
Solubility (Test E) = type: physicochemical
[5] = Test C IC50, IL-1β release, THP-1 cells, LPS 2 μg/mL 24 h, BzATP 1 mM

T1 sequence (Q96P20 whole entry): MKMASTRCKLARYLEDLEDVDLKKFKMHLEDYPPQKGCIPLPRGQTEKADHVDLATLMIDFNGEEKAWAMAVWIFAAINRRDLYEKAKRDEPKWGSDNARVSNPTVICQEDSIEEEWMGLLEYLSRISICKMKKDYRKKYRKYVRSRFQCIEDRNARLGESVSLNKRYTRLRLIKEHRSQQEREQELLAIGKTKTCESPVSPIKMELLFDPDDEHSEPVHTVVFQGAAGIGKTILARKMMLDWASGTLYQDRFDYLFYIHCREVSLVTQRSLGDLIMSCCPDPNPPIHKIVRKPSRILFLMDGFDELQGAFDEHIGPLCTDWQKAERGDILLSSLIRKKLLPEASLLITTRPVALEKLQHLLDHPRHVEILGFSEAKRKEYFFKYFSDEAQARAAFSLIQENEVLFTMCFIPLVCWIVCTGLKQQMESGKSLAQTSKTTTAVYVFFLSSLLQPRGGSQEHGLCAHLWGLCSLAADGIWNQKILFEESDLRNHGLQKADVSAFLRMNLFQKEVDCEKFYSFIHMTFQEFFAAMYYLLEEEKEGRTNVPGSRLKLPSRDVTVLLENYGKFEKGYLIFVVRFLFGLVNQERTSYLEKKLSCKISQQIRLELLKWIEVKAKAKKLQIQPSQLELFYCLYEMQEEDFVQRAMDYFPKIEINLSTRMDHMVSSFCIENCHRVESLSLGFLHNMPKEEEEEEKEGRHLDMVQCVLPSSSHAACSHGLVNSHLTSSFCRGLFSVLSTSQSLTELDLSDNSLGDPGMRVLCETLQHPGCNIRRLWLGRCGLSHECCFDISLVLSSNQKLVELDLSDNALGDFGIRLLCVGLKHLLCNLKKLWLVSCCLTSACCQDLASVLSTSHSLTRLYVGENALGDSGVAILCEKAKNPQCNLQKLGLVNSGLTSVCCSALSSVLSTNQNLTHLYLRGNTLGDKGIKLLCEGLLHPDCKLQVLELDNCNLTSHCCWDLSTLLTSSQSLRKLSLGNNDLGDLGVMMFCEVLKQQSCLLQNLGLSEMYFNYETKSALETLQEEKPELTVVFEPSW
Sequence of hERG (Q12809 whole entry): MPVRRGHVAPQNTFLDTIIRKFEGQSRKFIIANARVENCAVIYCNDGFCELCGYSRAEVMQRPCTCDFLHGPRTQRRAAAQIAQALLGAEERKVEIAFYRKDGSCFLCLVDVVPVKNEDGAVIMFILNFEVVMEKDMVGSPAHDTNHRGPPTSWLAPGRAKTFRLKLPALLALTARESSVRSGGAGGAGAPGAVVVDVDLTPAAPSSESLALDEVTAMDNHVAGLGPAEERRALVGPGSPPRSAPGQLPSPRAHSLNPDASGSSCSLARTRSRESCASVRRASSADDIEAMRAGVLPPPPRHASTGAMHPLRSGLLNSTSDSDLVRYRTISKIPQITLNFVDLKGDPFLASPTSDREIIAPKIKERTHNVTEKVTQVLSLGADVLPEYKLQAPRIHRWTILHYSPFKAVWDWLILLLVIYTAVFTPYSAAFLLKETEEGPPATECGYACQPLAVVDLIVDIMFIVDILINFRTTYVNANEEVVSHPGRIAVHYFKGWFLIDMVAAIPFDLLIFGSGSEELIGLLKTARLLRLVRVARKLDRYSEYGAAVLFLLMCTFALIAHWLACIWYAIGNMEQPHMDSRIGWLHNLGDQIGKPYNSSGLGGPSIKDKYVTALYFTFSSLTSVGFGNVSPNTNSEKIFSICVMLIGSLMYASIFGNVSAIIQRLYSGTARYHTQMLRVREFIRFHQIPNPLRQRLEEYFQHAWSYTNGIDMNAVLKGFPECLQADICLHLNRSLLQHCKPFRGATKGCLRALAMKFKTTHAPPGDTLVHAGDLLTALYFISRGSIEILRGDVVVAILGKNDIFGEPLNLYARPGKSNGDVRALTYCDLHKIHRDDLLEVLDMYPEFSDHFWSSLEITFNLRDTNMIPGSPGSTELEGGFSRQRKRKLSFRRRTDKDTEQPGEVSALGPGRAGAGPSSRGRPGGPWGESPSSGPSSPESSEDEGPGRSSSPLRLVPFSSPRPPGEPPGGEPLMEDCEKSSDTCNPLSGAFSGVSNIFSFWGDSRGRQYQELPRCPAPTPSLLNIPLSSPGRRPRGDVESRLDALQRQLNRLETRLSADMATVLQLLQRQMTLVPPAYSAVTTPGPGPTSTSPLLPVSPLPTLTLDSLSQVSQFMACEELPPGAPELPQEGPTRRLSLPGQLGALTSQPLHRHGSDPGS

Structure (SMILES)	EC50 (Human NLRP3 [1]) [nM]	IC50 (hERG) [nM]	solubility [2] [µg/mL]	IC50 (Human NLRP3 [3]; [5]) [nM]	IC50 (Human NLRP3 [4]) [nM]	solubility (Solubility (Test E)) [µM]	Test F Solubility [2] [µg/mL]	IC50 (Human NLRP3 [3]) [nM]
Oc1cccc(F)c1-c1nnc(N[C@@H]2CCCC[C@H]2O)c2cnccc12 [Example 76, 3-fluoro-2-(4-(((1R,2R)-2-hydroxycyclohexyl)amino)pyrido[3,4-d]pyridazin-1-yl)phenol]	128	> 40000	–	–	–	–	–	–
CC(C)(O)CNc1nnc(-c2c(O)cc(Cl)cc2F)c2ccncc12 [Example 73, 5-chloro-3-fluoro-2-[4-[(2-hydroxy-2-methyl-propyl)amino]pyrido[3,4-d]pyridazin-1-yl]phenol]	142	> 40000	14.1 (≈ 38.9 µM)	15	–	–	–	–
Oc1cc(C(F)(F)F)ccc1-c1nnc(N[C@H]2CCC[C@H]2O)c2ccccc12 [Example 21, 2-[4-[[(1S,2R)-2-hydroxycyclopentyl]amino]phthalazin-1-yl]-5-(trifluoromethyl)phenol]	105	19000	14.5 (≈ 37.2 µM)	8	36	71 (≈ 27.6 µg/mL)	–	–
Oc1cc(Cl)ccc1-c1nnc(N[C@@H]2CCC[C@H](O)C2)c2cnccc12 [Example 44, 5-chloro-2-[4-[[(1R,3S)-3-hydroxycyclohexyl]amino]pyrido[3,4-d]pyridazin-1-yl]phenol]	16	> 40000	40.1 (≈ 108 µM)	< 3	–	636 (≈ 236 µg/mL)	–	–
Cc1ccc(-c2nnc(NC[C@H](O)CO)c3ccccc23)c(O)c1 [Example 11, (2S)-3-[[4-(2-hydroxy-4-methyl-phenyl)phthalazin-1-yl]amino]propane-1,2-diol]	207	–	> 65.1	23	82	> 1000	–	–
Oc1cc(C(F)(F)F)ccc1-c1nnc(N[C@H]2CCCC[C@H]2O)c2ccccc12 [Example 25, 2-[4-[[(1S,2R)-2-hydroxycyclohexyl]amino]phthalazin-1-yl]-5-(trifluoromethyl)phenol]	80	7400	1.8 (≈ 4.46 µM)	8	36	3 (≈ 1.21 µg/mL)	–	–
Oc1cc(C(F)(F)F)ccc1-c1nnc(N[C@H]2CC[C@@H](O)C2)c2ccccc12 (single isomer, unassigned) [Example 35]	212	–	–	69	71	–	10.9	–
Oc1cc(C(F)(F)F)ccc1-c1nnc(N[C@H]2CC[C@H](O)C2)c2ccccc12 [Example 17, 2-[4-[[(1S,3S)-3-hydroxycyclopentyl]amino]phthalazin-1-yl]-5-(trifluoromethyl)phenol]	290	–	27.5 (≈ 70.6 µM)	86	169	–	–	–
C[C@]1(O)C[C@@H](Nc2nnc(-c3ccc(C(F)(F)F)cc3O)c3ccccc23)C1 [Example 37, 2-(4-(((1s,3s)-3-hydroxy-3-methylcyclobutyl)amino)phthalazin-1-yl)-5-(trifluoromethyl)phenol]	339	29000	–	–	32	–	–	–
Oc1cc(C2CC2)ccc1-c1nnc(N[C@@H]2CCC[C@H](O)C2)c2cnccc12 [Example 52, 5-cyclopropyl-2-[4-[[(1R,3S)-3-hydroxycyclohexyl]amino]pyrido[3,4-d]pyridazin-1-yl]phenol]	52	22000	51.9 (≈ 138 µM)	6	–	447 (≈ 168 µg/mL)	–	–
Oc1cc(C(F)(F)F)ccc1-c1nnc(N[C@@H]2CCCC[C@@H]2O)c2ccccc12 [Example 23, 2-[4-[[(1R,2S)-2-hydroxycyclohexyl]amino]phthalazin-1-yl]-5-(trifluoromethyl)phenol]	156	21000	4.4 (≈ 10.9 µM)	14	31	0.4 (≈ 0.161 µg/mL)	–	–
Oc1cc(C(F)(F)F)ccc1-c1nnc(N[C@H]2CC[C@@H](O)C2)c2cnccc12 [Example 83, 2-[4-[[(1S,3R)-3-hydroxycyclopentyl]amino]pyrido[3,4-d]pyridazin-1-yl]-5-(trifluoromethyl)phenol]	129	> 40000	4.7 (≈ 12 µM)	20	38	47 (≈ 18.3 µg/mL)	–	–
Oc1cc(C(F)(F)F)ccc1-c1nnc(N[C@@H]2CCC[C@H]2O)c2ccccc12 [Example 20, 2-[4-[[(1R,2R)-2-hydroxycyclopentyl]amino]phthalazin-1-yl]-5-(trifluoromethyl)phenol]	162	–	8.6 (≈ 22.1 µM)	10	46	206 (≈ 80.2 µg/mL)	–	–
C[C@]1(O)C[C@@H](Nc2nnc(-c3c(O)cc(C(F)(F)F)cc3F)c3ccncc23)C1 [Example 67, 3-fluoro-2-(4-(((1s,3s)-3-hydroxy-3-methylcyclobutyl)amino)pyrido[3,4-d]pyridazin-1-yl)-5-(trifluoromethyl)phenol]	67	–	1.5 (≈ 3.67 µM)	–	24	3 (≈ 1.23 µg/mL)	–	8
C[C@]1(O)C[C@@H](Nc2nnc(-c3c(O)cc(F)cc3F)c3ccncc23)C1 [Example 69, 3,5-difluoro-2-(4-(((1s,3s)-3-hydroxy-3-methylcyclobutyl)amino)pyrido[3,4-d]pyridazin-1-yl)phenol]	301	–	13.6 (≈ 38 µM)	–	149	29 (≈ 10.4 µg/mL)	–	38
Oc1cc(C(F)(F)F)ccc1-c1nnc(N[C@@H]2CC[C@@H](O)C2)c2ccccc12 [Example 16, 2-[4-[[(1R,3R)-3-hydroxycyclopentyl]amino]phthalazin-1-yl]-5-(trifluoromethyl)phenol]	54	22000	23.9 (≈ 61.4 µM)	20	30	–	–	–
Oc1cc(C(F)(F)F)ccc1-c1nnc(N[C@H]2C[C@H](O)C2)c2ccccc12 [Example 32, 2-(4-(((1r,3r)-3-hydroxycyclobutyl)amino)phthalazin-1-yl)-5-(trifluoromethyl)phenol]	248	–	1.4 (≈ 3.73 µM)	63	141	–	–	–
Oc1cc(Cl)ccc1-c1nnc(N[C@@H]2CCCC[C@H]2O)c2cnccc12 [Example 58, 5-chloro-2-[4-[[(1R,2R)-2-hydroxycyclohexyl]amino]pyrido[3,4-d]pyridazin-1-yl]phenol]	11	> 40000	42.4 (≈ 114 µM)	2	–	–	–	–
OC[C@@H](O)CNc1nnc(-c2ccc(Cl)cc2O)c2ccccc12 [Example 5, (2S)-3-[[4-(4-chloro-2-hydroxy-phenyl)phthalazin-1-yl]amino]propane-1,2-diol]	122	–	7.9 (≈ 22.8 µM)	17	45	6 (≈ 2.07 µg/mL)	–	–
Oc1cc(OC(F)(F)F)ccc1-c1nnc(N[C@@H]2CCC[C@H](O)C2)c2cnccc12 [Example 48, 2-[4-[[(1R,3S)-3-hydroxycyclohexyl]amino]pyrido[3,4-d]pyridazin-1-yl]-5-(trifluoromethoxy)phenol]	29	> 40000	80.4 (≈ 191 µM)	4	14	326 (≈ 137 µg/mL)	–	–
Oc1cc(F)ccc1-c1nnc(N[C@@H]2CCCC[C@H]2O)c2cnccc12 [Example 75, 5-fluoro-2-(4-(((1R,2R)-2-hydroxycyclohexyl)amino)pyrido[3,4-d]pyridazin-1-yl)phenol]	124	> 40000	–	–	10	–	–	–
Oc1cc(C(F)(F)F)ccc1-c1nnc(N[C@H]2C[C@@H](O)C2)c2ccccc12 [Example 33, 2-(4-(((1s,3s)-3-hydroxycyclobutyl)amino)phthalazin-1-yl)-5-(trifluoromethyl)phenol]	206	–	2.6 (≈ 6.93 µM)	46	122	–	–	–
OC[C@@H](O)CNc1nnc(-c2ccc(OC(F)(F)F)cc2O)c2ccccc12 [Example 6, (2S)-3-[[4-[2-hydroxy-4-(trifluoromethoxy)phenyl]phthalazin-1-yl]amino]propane-1,2-diol]	201	–	> 79.1	40	99	130 (≈ 51.4 µg/mL)	–	–
Oc1cc(C(F)(F)F)ccc1-c1nnc(N[C@@H]2CCC[C@@H]2O)c2ccccc12 [Example 19, 2-[4-[[(1R,2S)-2-hydroxycyclopentyl]amino]phthalazin-1-yl]-5-(trifluoromethyl)phenol]	26	23000	10.6 (≈ 27.2 µM)	5	20	171 (≈ 66.6 µg/mL)	–	–
C[C@]1(O)C[C@@H](Nc2nnc(-c3ccc(Cl)c(F)c3O)c3ccncc23)C1 [Example 65, 3-chloro-2-fluoro-6-(4-(((1s,3s)-3-hydroxy-3-methylcyclobutyl)amino)pyrido[3,4-d]pyridazin-1-yl)phenol]	373	–	1.1 (≈ 2.93 µM)	–	114	11 (≈ 4.12 µg/mL)	–	37
Oc1cc(C(F)(F)F)ccc1-c1nnc(N[C@@H]2CCCC[C@H]2O)c2ccccc12 [Example 24, 2-[4-[[(1R,2R)-2-hydroxycyclohexyl]amino]phthalazin-1-yl]-5-(trifluoromethyl)phenol]	38	17000	7.9 (≈ 19.6 µM)	5	9	148 (≈ 59.7 µg/mL)	–	–
